Measured values as given in US20250170098A1, “MOLECULAR JACKHAMMER FOR MECHANICAL DESTRUCTION OF CELLULAR STRUCTURE” (William Marsh Rice University, priority 2022, published 2025).

How the values were obtained:
[1] = test system: A375 human melanoma tumors; test: Treatment of A375 human melanoma tumors in nude mice; type: in vivo, mouse
Experimental: Preparation of fresh solution of 200 μM Cy7.5-amine and 2.5% DMSO for in vivo studies. In the day of treatment, fresh solution of 200 μM Cy7.5-amine was prepared by diluting in PBS buffer the 8 mM Cy7.5-amine stock in DMSO, the final dilution contained 2.5% DMSO. As control 2.5% DMSO in PBS buffer was used.
Injection of A375 cells subcutaneously in athymic nude mice to generate the human melanoma tumor model. The A375 cells were culture as described before. Cells were harvested from sub-confluent plates, ˜90%, and fresh media was added to the cells the day before harvesting. The cells were harvested using 0.05% trypsin-EDTA (Gibco, 25-300-054). The harvested cells were re-dispersed in DMEM media without supplements at 50×10^6 cells mL^−1. The cell suspension was kept in ice. Then 100 μL of cells were injected per mouse (this was 5 million of cells per mouse) subcutaneously in the right flank of 7-8 weeks old female athymic nude mouse. Starting at day 2 the tumors were measured using a caliper. The typical volume of the tumors at day 2 was ˜33 mm^3. The volume of the tumor was calculated as: (½)×length×width×height. When the height was not possible to measure in the case of the tumors that were too small (usually <100 mm^3), then the tumor volume was calculated as: (½)×length×width^2.
Treatment of A375 tumors with Cy7.5-amine and NIR 730 nm light. The tumors were treated at day 3 (since 5 million initial cells were injected per tumor site) when the average tumors size was 35 mm^3. Forty mice were divided in 4 groups (number of mice per group, n=10): 1) Cy7.5-amine only 2) 2.5% DMSO only, 3) 2.5% DMSO+Light and 3) Cy7.5-amine+light. The day of treatment, fresh solutions (200 μM of Cy7.5-amine in PBS and controls 2.5% DMSO in PBS) were prepared as described before. The mice were anesthetized with isoflurane using a vaporizer. Then, each mouse was injected with 50 μL of 200 μM Cy7.5-amine solution in PBS or 2.5% DMSO, intratumorally. Then mice were kept for 25 min in the cages to let the Cy7.5-amine solution or DMSO solution interact with the tumors. Then, after the 25 min of incubation, the mice were treated (under anesthesia, using isoflurane) with 730 nm LED light source from Prizmatix applying a power intensity of 150 mWcm^−2 for 5 min (other power intensities were 210 mWcm^−2 for 5 min and 300 mWcm^−2 for 5 min as described in the treatment schedule in FIG. 27F). The light intensity was measured using an Optical Power Meter from Thorlabs, sensor model S302C and console model PM100D. When the treatment was finished the mice were put back into the cages and housed in the animal facility. The tumors sizes were measured every other day using a caliper in the first 20 days of the study and then in the late stage of the study twice a week.

[2] = test system: human melanoma A375 cells; test: Cell permeabilization to DAPI, flow cytometry analysis; type: cell-based
Experimental: The activity of plasmon-driven MJHs to open cell membranes by VDA upon NIR light-activation was evaluated in human melanoma A375 cells. When the cell membranes were open by VDA, DAPI enters immediately into the cells and stain the nucleus, and flow cytometry analysis was used to quantify the percentage of DAPI positive cells at variable concentrations of MJH. The flow cytometry analysis is conducted immediately after the cells were treated with 730 nm LED light at 80 mW/cm^2 for 10 min. Typically, it took ˜30 s to start cell counting and observe that DAPI already had entered into the cell membrane-compromised cells but not in the controls without VDA action. This is indicative of a rapid necrotic cell death and cell membrane permeabilization to DAPI by VDA action. The effective concentration needed to permeabilize cells by 50% (VDA IC50) was estimated for each molecule.
The flow cytometry data was analyzed using FlowJo software version 10.5.3. Then, a wide polygonal gate was drawn as shown in FIG. 33A since we were interested in detecting any cell death after treatment, we were not only interested in measuring healthy cell populations. Sometimes, we observed that the death cell population upon treatment shifted outside the gate if a narrow gate was used. Then, the singlets were selected and the DAPI fluorescence intensity was plotted versus the SSC-A and the gate for DAPI positive cells was drawn as shown in FIG. 33C and the analysis was applied to all samples in the group. In FIG. 33D, a DAPI positive population is observed in the same analysis group. This analysis was applied to calculate the percentage of DAPI positive cells.
Cell Permeabilization and flow cytometry analysis. A375 cells were cultured as described before. One day before the treatment, cells were inoculated at 5 million cells per dish (10 cm polystyrene tissue culture dish). The cells were harvested using 0.05% trypsin-EDTA (Gibco, 25-300-054), then the cells were counted and were adjusted to a cell density of 2×10^5 cells/mL in DMEM media with L-glutamine, 4.5 g/L glucose, and sodium pyruvate (Corning Inc. 10013CV) and supplemented with 10% FBS (Corning, 35010CV), 2×MEM vitamin solution (Gibco, 11120052), 1×MEM non-essential amino acid solution (Gibco, 11140050) and penicillin/streptomycin. 1 mL of this cell suspension containing 2×10^5 cells was used in each treatment. In a 1.5 mL Eppendorf tube, […] containing 2 mM Cy7.5-amine (or other cyanine molecule or other concentration) in DMSO (Fisher, 99.7%) was placed in the bottom of the tube, then 1 mL of the cell suspension was added into the tube to get final concentration of 2 μM of Cy7.5-amine containing 0.1% DMSO and 2×10^5 cells. The mixture was then incubated at 37° C. and 5% CO2 for 30 min. Then, 1 mM DAPI was added into the cell suspension. Then, the cells suspension was transferred to a […] tissue culture dish and immediately the cells were treated under the light beam of NIR light of 730 nm at 80 mW/cm^2 (or adjusted powers down to 20 mW/cm^2) for 10 min (or adjusted illumination times down to 30 s) using LED light source (PRIZMATIX, UHP-F-730, Israel) which covered the entire dish. While the cells were treated, the dish was placed on top of an aluminum block painted black, so that the excess NR light and that was not reflected back into the cell suspension while the aluminum block actED as a heat-sink, maintaining a constant temperature in the dish during the irradiation. The instrument for flow cytometry analysis (SONY, MA900 Multi-Application Cell Sorter) was already set up and calibrated by the time the light treatment was finished. Therefore, as soon as the 10-min light treatment was completed, the cell suspension was rapidly transferred from the 35 mm dish to a flow cytometry tube and the cells were analyzed for DAPI permeabilization and Cy7.5-amine binding. It took ˜30 s to load the sample and to start the analysis. […]

CN1/C(=C\C=C2C=C(/C=C/C3=[N+](CCCCCC(=O)NCCCCCCN)c4ccc5ccccc5c4C3(C)C)CCC\2)C(C)(C)c2c1ccc1ccccc21 [Cy7.5-amine]
mice tumor free ([1]; 8 μg intratumoral + light (300 mWcm^−2 of 730 nm LED for 5 min)): 50% | survival rate of mice with A375 tumors ([1]; 8 μg intratumoral + light (300 mWcm^−2 of 730 nm LED for 5 min), day 120): 60% | effect on size of A375 tumors ([1]; 150-215 mWCm^−2): mild therapeutic effect | effect on size of A375 tumors ([1]; 300 mWCm^−2): strong effect on the regression of the tumor size | survival of mice with A375 tumors ([1]; Cy7.5-amine group without light): 20% | permeabilization to DAPI staining, percentage of cells ([2]; 1 μM, 730 nm LED at 80 mW/cm^2 for 10 min): 99.6% | binding to cells upon addition of acetic acid ([2]; 2 μM, acetic acid 0 mM-10 mM): not able to bind efficiently to lipid membranes
